Measured values as given in PMC8070004, “Isorhamnetin Ameliorates Dry Eye Disease via CFTR Activation in Mice” (International Journal of Molecular Sciences, 2021).

Columns and labels:
intracellular cAMP = assay: cAMP assay in FRT cells; type: cell-based, rat; conditions: 30 µM
Protocol: FRT cells grown on 96-well culture plates were washed three times with PBS at 37 °C and then incubated in induction buffer from a cAMP assay kit (cAMP-Glo Assay; Promega, Madison, WI, USA) at 37 °C containing 100 μM 3-isobutyl-1-methylxanthine (IBMX) for 10 min in the absence or presence of forskolin or isorhamnetin. Cytosolic cAMP was measured using the kit according to the manufacturer’s protocol.

[1] = tested on: corneal epithelial (CorE) cells; assay: MTS cell viability assay in CorE cells; type: cell-based, human; conditions: 48 h; isorhamnetin 30 μM, Triton X-100 0.01%
Protocol: (§1) Immortalized human CorE [47] and immortalized human ConjE (Innoprot, Bizkaia, Spain) cells were plated on 96-well microplates. After 24 h incubation, cells were treated with 30 μM isorhamnetin or 0.01% Triton X-100 and then they were incubated for two days. An equal amount of DMSO was added to the control. The culture medium and the compounds were changed every 12 h. To assess cell proliferation, after 48 h of incubation with the compound, the cells were reincubated with MTS for 1 h. The soluble formazan produced by cellular reduction of MTS was quantified by measuring the absorbance at 490 nm with Infinite M200 (Tecan, Grödig, Austria) microplate reader. MTS assay was done using CellTiter 96 AQueous One Solution Cell Proliferation Assay kit (Promega, Madison, WI, USA).

[2] = tested on: conjunctival epithelial (ConjE) cells; assay: MTS cell viability assay in ConjE cells; type: cell-based, human; conditions: 48 h; isorhamnetin 30 μM, Triton X-100 0.01%
Protocol: as §1

human ΔF508-CFTR = target: T1, human ΔF508-CFTR (Homo sapiens, UniProt P13569, DEL508-508); assay: Apical membrane current in FRT cells expressing low-temperature-rescued ΔF508-CFTR; type: cell-based
T1 construct: expressed in transfected cells; host or cells: FRT (Fisher rat thyroid) cells, provided by Dr. Alan Verkman; 27 °C for 24 h
Protocol: Snapwell inserts containing CFTR-expressing FRT and T84 cells were mounted in Ussing chambers (Physiologic Instruments, San Diego, CA, USA). Forskolin, isorhamnetin, and CFTRinh-172 were added to the apical and basolateral bath solution. For FRT cells, the apical bath was filled with a half-Cl^− solution and the basolateral bath was filled with HCO^3--buffered solution to generate transepithelial Cl^− gradient (apical, 64 mM; basolateral, 129 mM), and the basolateral membrane was permeabilized with 250 µg/mL amphotericin B. For T84 cells, symmetrical HCO^3--buffered solutions were used, and ENaC was inhibited with amiloride (100 µM). All cells were bathed for a 20-min stabilization period and aerated with 95% O2/5% CO2 at 37 °C. Apical membrane current and short-circuit current were measured with an EVC4000 Multi-Channel V/I Clamp (World Precision Instruments, Sarasota, FL, USA) and recorded using PowerLab 4/35 (AD Instruments, Castle Hill, Australia). Data were collected and analyzed with ADInstruments acquisition software Labchart Pro 7 software. The sampling rate was 4 Hz.

[3] = tested on: pro-inflammatory cytokine mRNA expression; assay: Real-time PCR of pro-inflammatory cytokines in cornea and conjunctiva of dry eye mice; type: in vivo, mouse
Protocol: Eight-week-old C57BL/6 mice were used for this experiment. Experimental dry eye was induced by subcutaneous injection of 0.5 mg/100 μL scopolamine hydrobromide (Sigma-Aldrich, St. Louis, MO, USA) three times a day with a standard desiccating environment created by placing the mice in a chamber with a continuous air flow (15 L/min) in a room at 25 °C with an ambient humidity of 12%. Fourteen days after the initiation of experimental dry eye, the mice were treated or not with 5-μL drop of ophthalmic formulation (30 μM isorhamnetin in PBS with 0.1% DMSO) or vehicle three times a day. Eight days after the initiation of the formulation treatment, scopolamine injection was stopped. Ten days after the initiation of the formulation treatment, measurement of tear volume, corneal disruption, and relative mRNA level was performed.
The mRNA expressions of IL-1β, IL-6, IL-8, TNF-α, IFN-γ, and MMP-9 in cornea and conjunctiva of the dry eye model-treated mice were measured by qPCR. RNA was isolated using TRIzol reagent (Invitrogen, Carlsbad, CA, USA), and 1 μg of RNA was used to synthesize complementary DNA (cDNA) using RNA to cDNA EcoDryTM premix (TaKaRa, Shiga, Japan) according to the manufacturer’s protocol. The relative mRNA levels were measured in ViiA7 (Applied Biosystems, Foster City, CA, USA) using SYBR Green PCR Master Mix (Applied Biosystems). The primer sequences used were as follows: GAPDH, sense (5-[…]-3) and antisense (5-[…]-3), size of PCR product 155 base pairs; IL-1β, sense (5-[…]-3) and antisense (5-[…]-3), size of PCR product 199 base pairs; IL-6, sense (5-[…]-3) and antisense (5-[…]-3), size of PCR product 131 base pairs; IL-8, sense (5-[…]-3) and antisense (5-[…]-3), size of PCR product 190 base pairs; TNF-α, sense (5-[…]-3) and antisense (5-[…]-3), size of PCR product 166 base pairs; IFN-γ, sense (5-[…]-3) and antisense (5- […]-3), size of PCR product 156 base pairs; and MMP-9, sense (5-[…]-3) and antisense (5-[…]-3), size of PCR product 190 base pairs. The mRNA levels of the cytokines and MMP-9 were normalized to GAPDH levels and the fold-change in gene expression was determined by using 2^-ΔΔCT method.

WT-CFTR = WT-CFTR (Homo sapiens, UniProt P13569); assay: Whole-cell patch clamp in CHO-K1 cells expressing WT-CFTR; type: cell-based; parameters: expressed in transfected cells; host or cells: CHO-K1; conditions: 30 μM isorhamnetin; linear current/voltage relationship
Protocol: Whole-cell, patch clamp recordings were performed on CFTR-expressing CHO cells. The bath solution contained (in mM) 140 NMDG-Cl, 1 CaCl2, 1 MgCl2, 10 glucose, and 10 HEPES (pH 7.4). The pipette solution contained (in mM) 130 CsCl, 0.5 EGTA, 1 MgCl2, 1 Tris-ATP, and 10 HEPES (pH 7.2). […] Seal resistances were between 3 and 10 GΩ. After establishing the whole-cell configuration, CFTR was activated by forskolin and/or isorhamnetin. […] Recordings were made at room temperature using an Axopatch-200B (Axon Instruments, San Jose, CA, USA). Currents were digitized with a Digidata 1440A converter (Axon Instruments), filtered at 5 kHz, and sampled at 1 kHz.

[4] = cornea of the dry eye mouse model

T1 sequence (P13569 with tags, fused parts or gaps DEL508-508): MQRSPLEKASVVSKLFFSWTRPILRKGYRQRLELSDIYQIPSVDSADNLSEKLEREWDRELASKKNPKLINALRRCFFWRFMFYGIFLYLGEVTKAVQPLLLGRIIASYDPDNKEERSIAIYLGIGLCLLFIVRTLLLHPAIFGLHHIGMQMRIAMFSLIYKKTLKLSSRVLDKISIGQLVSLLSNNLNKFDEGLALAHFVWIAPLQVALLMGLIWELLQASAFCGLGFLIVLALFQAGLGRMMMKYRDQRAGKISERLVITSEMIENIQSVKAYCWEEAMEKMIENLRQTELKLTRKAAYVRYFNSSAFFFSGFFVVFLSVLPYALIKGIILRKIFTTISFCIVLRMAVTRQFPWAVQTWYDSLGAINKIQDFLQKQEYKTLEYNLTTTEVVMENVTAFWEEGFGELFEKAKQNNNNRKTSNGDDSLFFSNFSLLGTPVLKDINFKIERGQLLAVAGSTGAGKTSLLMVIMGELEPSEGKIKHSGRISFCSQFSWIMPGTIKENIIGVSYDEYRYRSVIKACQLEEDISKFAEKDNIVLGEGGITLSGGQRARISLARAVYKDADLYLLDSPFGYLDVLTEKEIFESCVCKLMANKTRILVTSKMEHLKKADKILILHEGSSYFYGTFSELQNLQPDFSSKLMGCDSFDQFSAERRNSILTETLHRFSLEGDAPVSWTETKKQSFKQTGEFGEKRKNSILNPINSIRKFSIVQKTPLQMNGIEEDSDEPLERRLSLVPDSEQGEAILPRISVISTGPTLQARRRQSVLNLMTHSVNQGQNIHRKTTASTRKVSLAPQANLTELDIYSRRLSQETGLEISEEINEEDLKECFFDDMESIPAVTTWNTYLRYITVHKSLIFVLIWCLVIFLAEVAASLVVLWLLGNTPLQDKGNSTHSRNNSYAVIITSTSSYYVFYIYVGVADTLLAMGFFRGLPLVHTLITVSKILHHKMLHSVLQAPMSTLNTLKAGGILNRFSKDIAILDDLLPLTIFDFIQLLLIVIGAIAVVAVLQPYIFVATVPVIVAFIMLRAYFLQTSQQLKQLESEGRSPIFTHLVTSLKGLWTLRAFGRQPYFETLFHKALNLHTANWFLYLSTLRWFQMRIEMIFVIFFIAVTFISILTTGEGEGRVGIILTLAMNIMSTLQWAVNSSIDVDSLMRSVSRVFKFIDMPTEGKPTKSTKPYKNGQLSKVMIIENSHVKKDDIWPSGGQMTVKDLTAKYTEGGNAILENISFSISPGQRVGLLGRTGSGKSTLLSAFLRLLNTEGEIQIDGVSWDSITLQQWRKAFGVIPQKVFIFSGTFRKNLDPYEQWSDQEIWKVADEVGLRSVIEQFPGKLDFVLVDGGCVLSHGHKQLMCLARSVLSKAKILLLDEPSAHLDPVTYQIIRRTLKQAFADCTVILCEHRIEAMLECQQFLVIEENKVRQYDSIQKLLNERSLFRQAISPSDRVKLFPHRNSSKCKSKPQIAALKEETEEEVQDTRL
WT-CFTR, sequence (P13569 whole entry): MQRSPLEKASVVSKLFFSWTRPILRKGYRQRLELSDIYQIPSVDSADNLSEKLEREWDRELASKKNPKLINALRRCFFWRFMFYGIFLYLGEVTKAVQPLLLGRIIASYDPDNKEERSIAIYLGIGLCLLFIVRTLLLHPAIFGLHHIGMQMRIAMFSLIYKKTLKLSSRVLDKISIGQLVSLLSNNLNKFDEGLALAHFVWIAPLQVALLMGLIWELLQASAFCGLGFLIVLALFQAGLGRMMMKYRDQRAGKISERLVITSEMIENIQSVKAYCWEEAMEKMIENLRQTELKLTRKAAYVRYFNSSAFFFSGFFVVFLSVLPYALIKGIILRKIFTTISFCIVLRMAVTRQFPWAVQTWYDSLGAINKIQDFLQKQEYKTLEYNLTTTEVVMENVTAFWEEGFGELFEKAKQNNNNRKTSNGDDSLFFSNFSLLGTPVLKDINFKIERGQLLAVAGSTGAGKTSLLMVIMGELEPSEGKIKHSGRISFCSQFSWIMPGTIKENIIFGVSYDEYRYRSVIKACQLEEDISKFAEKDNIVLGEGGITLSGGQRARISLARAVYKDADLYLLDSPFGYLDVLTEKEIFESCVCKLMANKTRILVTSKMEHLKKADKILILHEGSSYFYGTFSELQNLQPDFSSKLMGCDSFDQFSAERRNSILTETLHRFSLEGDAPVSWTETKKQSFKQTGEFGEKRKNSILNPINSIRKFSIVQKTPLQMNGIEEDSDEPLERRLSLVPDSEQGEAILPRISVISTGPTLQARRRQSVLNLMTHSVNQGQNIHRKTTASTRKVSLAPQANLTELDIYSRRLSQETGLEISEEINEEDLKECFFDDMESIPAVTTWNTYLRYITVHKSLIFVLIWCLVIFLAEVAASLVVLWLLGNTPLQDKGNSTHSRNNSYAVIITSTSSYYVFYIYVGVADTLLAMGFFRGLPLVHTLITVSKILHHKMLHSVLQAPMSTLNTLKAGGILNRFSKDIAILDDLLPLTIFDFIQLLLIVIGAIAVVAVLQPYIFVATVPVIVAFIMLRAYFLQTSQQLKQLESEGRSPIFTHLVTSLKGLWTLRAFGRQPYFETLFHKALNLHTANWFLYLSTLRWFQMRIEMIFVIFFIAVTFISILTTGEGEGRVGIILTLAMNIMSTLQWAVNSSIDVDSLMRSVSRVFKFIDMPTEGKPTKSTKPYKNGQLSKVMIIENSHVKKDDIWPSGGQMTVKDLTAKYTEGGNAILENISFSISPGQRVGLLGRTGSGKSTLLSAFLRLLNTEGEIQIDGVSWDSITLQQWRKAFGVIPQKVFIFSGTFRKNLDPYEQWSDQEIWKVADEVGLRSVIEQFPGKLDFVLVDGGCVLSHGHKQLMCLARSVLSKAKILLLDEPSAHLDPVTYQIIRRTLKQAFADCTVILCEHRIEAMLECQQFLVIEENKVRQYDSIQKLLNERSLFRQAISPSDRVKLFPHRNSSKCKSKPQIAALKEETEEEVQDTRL

For `COc1cc(-c2oc3cc(O)cc(O)c3c(=O)c2O)ccc1O` [isorhamnetin], the “intracellular cAMP levels” value (intracellular cAMP) was “did not alter”, the “cell viability (MTS), CorE cells” value [1] was “did not affect the cell viability” and the “cell viability (MTS), ConjE cells” value [2] was “did not affect the cell viability”. The “ΔF508-CFTR chloride current activated by 20 μM forskolin” value (human ΔF508-CFTR; 30 μM isorhamnetin) was “doubled”, the “forskolin-induced ΔF508-CFTR chloride current” value (human ΔF508-CFTR; dose-dependent, ΔF508-CFTR rescued at 27 °C for 24 h) was “strongly potentiated” and the IL-1β expression [3, 4] was “significantly reduced”. The IL-8 expression [3, 4] was “significantly reduced”, the TNF-α expression [3, 4] was “significantly reduced” and the “mRNA expression of cytokines in cornea and conjunctiva” value ([3]; dry eye mice treated with isorhamnetin for 10 days) was “strongly reduced”. The “CFTR Cl- currents (whole-cell)” value (WT-CFTR) was “fully activated”.
